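All cell lines were grown in 96-well plates and treated with compound for 48 hours. Abbreviation: GI50, concentration required for 50% inhibition of growth.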 Activity calls are given as the source filed them. Cut-off read from the data, not from the text of the source: active = GI50 up to about 1.1 µM and inactive = higher.
How the values were obtained:
Assay in all cases: inhibition of tumour cell growth, NCI panel, 48 h
[1] = test system: HCT-15
[2] = test system: 786-0
[3] = test system: NCI-H226
[4] = test system: PC-3
[5] = test system: SK-MEL-28
[6] = test system: SK-MEL-2
[7] = test system: SW-620
[8] = test system: OVCAR-5
[9] = test system: LOX IMVI
[10] = test system: A498
[11] = test system: MOLT-4
[12] = test system: OVCAR-8
[13] = test system: M14
[14] = test system: RXF 393
[15] = test system: BT-549
[16] = test system: SF-295
[17] = test system: HT-29
[18] = test system: OVCAR-4
[19] = test system: COLO 205
[20] = test system: HL-60

Measured: GI50

Cn1c(=O)c2c(nc(NCCNc3nc4c(c(=O)n(C)c(=O)n4C)n3C)n2C)n(C)c1=O
> 100 µM: [1]
inactive: [2] > 100 µM | [3] > 100 µM | [4] > 100 µM | [5] > 100 µM | [6] > 100 µM | [7] > 100 µM | [8] > 100 µM | [9] > 100 µM | [10] > 100 µM | [11] > 100 µM | [12] > 100 µM | [13] > 100 µM | [14] > 100 µM | [15] > 100 µM | [16] > 100 µM | [17] > 100 µM | [18] > 100 µM

c1ccc(C2(c3cc4ccccc4[nH]3)OCCO2)nc1
inactive: [2] > 100 µM | [3] > 100 µM | [4] > 100 µM | [5] > 100 µM | [6] > 100 µM | [7] > 100 µM | [8] > 100 µM | [9] > 100 µM | [10] > 100 µM | [19] > 100 µM | [12] > 100 µM | [13] > 100 µM | [14] > 100 µM | [15] > 100 µM | [20] > 100 µM | [16] > 100 µM | [17] > 100 µM | [18] > 100 µM
> 100 µM: [1]

O=C1C=C(NCC(c2ccccc2)c2ccccc2)C(=O)c2ncccc21
active: [9] 1.11 µM | [15] 1.06 µM
inactive: [2] 2.88 µM | [3] 3.1 µM | [4] 1.75 µM | [5] 2.85 µM | [6] 2.28 µM | [7] 1.83 µM | [8] 5.14 µM | [10] 2.24 µM | [19] 9.89 µM | [11] 2.31 µM | [12] 2.39 µM | [13] 1.61 µM | [20] 1.15 µM | [16] 1.74 µM | [17] 7.45 µM | [18] 1.84 µM
0.504 µM: [1]

Cc1nn(C(=O)c2ccccc2O)c2c1C(c1ccc3ccccc3c1O)SC(=N)N2 (stereo not drawn)
4.26 µM: [1]
inactive: [2] 6.47 µM | [3] 2.65 µM | [4] 3.66 µM | [5] 5.16 µM | [6] 4.39 µM | [7] 4.61 µM | [8] 7.19 µM | [9] 3.75 µM | [10] 6.47 µM | [19] 2.4 µM | [11] 2.98 µM | [12] 5.11 µM | [13] 6.21 µM | [14] 6.56 µM | [15] > 10 µM | [16] > 10 µM | [17] 9.55 µM | [18] 5.13 µM

C=C1CC23CCC4C(C)(C(=O)O)CCCC4(C)C2CCC1C3 (stereo not drawn)
inactive: [2] 40.6 µM | [3] 55.7 µM | [4] 37.7 µM | [5] > 100 µM | [6] 42.3 µM | [7] 30.3 µM | [8] 95.3 µM | [9] 30.7 µM | [10] 39.5 µM | [19] 19.7 µM | [12] 41.7 µM | [13] 56 µM | [14] 33.5 µM | [15] 26.3 µM | [16] 35.3 µM | [17] 42.7 µM | [18] 58.5 µM
36.2 µM: [1]

C=C(C)C1=CCC[C@]2(C1)N=C(OC)[C@@H](C(C)C)N=C2OC
inactive: [2] > 100 µM | [3] > 100 µM | [4] > 100 µM | [5] > 100 µM | [6] > 100 µM | [7] > 100 µM | [8] > 100 µM | [10] > 100 µM | [19] > 100 µM | [11] 28.7 µM | [12] > 100 µM | [13] > 100 µM | [15] > 100 µM | [20] 28.3 µM | [16] > 100 µM | [17] > 100 µM | [18] > 100 µM
> 100 µM: [1]

CCOc1ccc(N/C(Cl)=C(Cl)\C(=C(\Nc2ccc(OCC)cc2)n2nnc3ccccc32)[N+](=O)[O-])cc1
inactive: [2] 4.02 µM | [3] 19.4 µM | [4] 7.4 µM | [5] 7.83 µM | [6] 16.7 µM | [7] 2.32 µM | [8] 9.44 µM | [9] 1.65 µM | [10] 20.4 µM | [19] 7.38 µM | [11] 2.85 µM | [12] 1.74 µM | [13] 4.75 µM | [14] 2.28 µM | [15] 3.85 µM | [16] 22.1 µM | [17] 1.75 µM | [18] 10.3 µM
1.91 µM: [1]

COC(=O)[C@H]1[C@@H](C(C)C)O[C@@H](C(C)C)O[C@H]1C(F)(F)F
inactive: [2] > 100 µM | [3] > 100 µM | [4] > 100 µM | [5] > 100 µM | [7] > 100 µM | [8] > 100 µM | [9] > 100 µM | [10] > 100 µM | [19] > 100 µM | [11] > 100 µM | [12] > 100 µM | [13] > 100 µM | [14] > 100 µM | [15] > 100 µM | [20] > 100 µM | [16] > 100 µM | [17] > 100 µM | [18] > 100 µM
> 100 µM: [1]

Cc1cccnc1N/C=C1\C(=O)NC(=O)N(C)C1=O
inactive: [2] > 100 µM | [3] > 100 µM | [4] > 100 µM | [5] > 100 µM | [6] > 100 µM | [7] > 100 µM | [8] > 100 µM | [9] 93.8 µM | [10] 12.3 µM | [19] > 100 µM | [11] > 100 µM | [12] > 100 µM | [13] > 100 µM | [15] > 100 µM | [20] > 100 µM | [16] > 100 µM | [17] > 100 µM | [18] > 100 µM
> 100 µM: [1]

Cn1c(=O)c2nc3nnc(C#N)c(N)n3c2n(C)c1=O
> 100 µM: [1]
inactive: [2] > 100 µM | [3] 54.1 µM | [4] > 100 µM | [5] > 100 µM | [6] > 100 µM | [8] > 100 µM | [10] 51.4 µM | [19] > 100 µM | [11] > 100 µM | [12] > 100 µM | [13] > 100 µM | [14] 79.4 µM | [15] > 100 µM | [20] > 100 µM | [16] > 100 µM | [17] > 100 µM | [18] > 100 µM

CCOC(=O)N1N=C(/C(C)=N/OC)C(C)[S+]1[O-] (stereo not drawn)
> 100 µM: [1]
inactive: [2] > 100 µM | [3] > 100 µM | [4] > 100 µM | [5] > 100 µM | [6] > 100 µM | [7] > 100 µM | [8] > 100 µM | [10] > 100 µM | [19] > 100 µM | [11] > 100 µM | [12] > 100 µM | [13] > 100 µM | [14] > 100 µM | [15] > 100 µM | [20] > 100 µM | [16] > 100 µM | [17] > 100 µM | [18] > 100 µM

Cc1ccc(C2SC(=N)Nc3c2c(C)nn3C(=O)c2ccccc2O)cc1 (stereo not drawn)
inactive: [2] > 10 µM | [3] > 10 µM | [4] > 10 µM | [5] > 10 µM | [6] 6.31 µM | [7] > 10 µM | [8] > 10 µM | [9] > 10 µM | [10] 3.59 µM | [19] > 10 µM | [11] 7.43 µM | [12] > 10 µM | [13] > 10 µM | [14] > 10 µM | [15] > 10 µM | [17] > 10 µM | [18] > 10 µM
> 10 µM: [1]

CCCCCCc1cc2cc(C(=O)Nc3cccc(F)c3)c(=N)oc2cc1O
inactive: [2] 3.28 µM | [4] 3.21 µM | [5] 2.67 µM | [6] 2.16 µM | [7] 3.39 µM | [8] 3.6 µM | [9] 1.67 µM | [10] 3.02 µM | [19] 14.6 µM | [11] 1.95 µM | [12] 1.59 µM | [13] 3.15 µM | [15] 2.63 µM | [20] 2.36 µM | [16] 3.2 µM | [17] 17.9 µM | [18] 2.78 µM
2.31 µM: [1]

CCNc1nnc(-c2ccccc2Nc2ccccc2-c2nnc(NCC)s2)s1
4.37 µM: [1]
inactive: [2] 11 µM | [3] 20.2 µM | [4] 17 µM | [5] 18.4 µM | [6] 9.77 µM | [7] 19.4 µM | [8] 18.2 µM | [9] 8.05 µM | [10] 13.5 µM | [19] > 32.8 µM | [11] 4.35 µM | [12] 13.6 µM | [13] 14.5 µM | [14] 21.6 µM | [15] 19.6 µM | [16] 16.3 µM | [17] 10.9 µM | [18] 27.5 µM

O=S(=O)(O)c1cccc2cccc(/N=N/c3c(O)ccc4ccccc34)c12
inactive: [2] > 100 µM | [3] > 100 µM | [4] > 100 µM | [6] > 100 µM | [7] > 100 µM | [8] > 100 µM | [10] > 100 µM | [19] > 100 µM | [11] > 100 µM | [12] > 100 µM | [13] > 100 µM | [14] > 100 µM | [15] > 100 µM | [20] > 100 µM | [16] > 100 µM | [17] > 100 µM | [18] > 100 µM
> 100 µM: [1]
